# Measured values published in patent publication US8057829B2, “Methods for repelling insects using sesquiterpene hydrocarbons and their derivatives” (Sterling International Inc., priority 2008, dated 2011).
# Tests used:
# [1] = tested on: antennae of Musca domestica, Lucillia sericata, Sarcophaga sp., Muscina stabulans, Culex pipiens, Aedes increpitus; assay: GC-EAD responses of several flies and two mosquitoes to a synthetic mixture; details: about 100 ng of each compound, FIG. 6
# Experimental: The GC-EAD responses of several species of flies and two species of mosquito antennae were tested on a synthetic mixture of 1-octen-3-ol, linalool, two representative sesquiterpene hydrocarbons, β-caryophyllene and α-humulene, ZE-nepetalactone, EZ-nepetalactone, and two known insect repellents, DEET, and SS220, with about 100 ng of each compound in the mixture. DEET and SS220 are used as positive controls in the experiment. The compound 1-octen-3-ol is a known attractant for the insects and is also used as a positive control. The insects tested are species of Musca domestica, Lucillia sericata, Sarcophaga sp., Muscina stabulans, Culex pipiens, and Aedes increpitus.
# The following procedures were employed to test the EAD response of an insect antenna to a repellent compound. The GC-EAD technique provides an efficient tool for screening behaviorally active repellents. Several synthetic mixtures of potential insect repellent candidates, mostly sesquiterpene hydrocarbons and derivatives, were analyzed in splitless mode using a Varian CP-3800 GC equipped with a polar column (Innowax; 1.0 μm film thickness, 30 m×0.53 mm ID; J & W Scientific), and a 1:1 effluent splitter that allowed simultaneous flame ionization detection (FID) and EAD of the separated volatile compounds. Helium was used as the carrier gas, and the injector temperature was 220° C. The column temperature was 50° C. for 2 min, rising to 240° C. at 10° C./min, then held for 10 min. The outlet for the EAD was held in a humidified air stream flowing at 0.5 liter/min. over an antennal preparation. A glass capillary indifferent electrode filled with Beadle-Ephrussi Ringer, and grounded via a silver wire, was inserted into the severed insect's head with the antennae. A similar recording electrode connected to a high-impedance DC amplifier with automatic baseline drift compensation was placed in contact with the distal end of one antenna (Zhang et al., Chemoecology, 10:69-80 (2000)). The antennal signals were stored and analyzed on a PC equipped with a serial IDAC interface box and the program EAD ver. […]
# [2] = tested on: houseflies; assay: Laboratory sticky trap bioassay of spatial repellency with egg powder attractant; format: in vivo, housefly (Musca domestica)
# Experimental: Laboratory bioassay tests were carried out to investigate the efficacy of some of the EAD-active compounds described above to act as spatial repellents against several insects. The procedure for the bioassay tests is described in Example 2 below. Briefly stated, the bioassay included using egg powder (EP) as an attractant for flies, while the compound whose insect repellency was being tested was placed in proximity to the egg powder. In FIGS. 11-13, the bioassay was carried out on houseflies using devices known by the designation Trécé Pherocon® VI sticky traps.
# The following lab bioassay tests were employed to illustrate the efficacy of the compounds to effectively act as spatial repellents for flies. Three sets of tests were conducted in a fly testing room (23° C., 70% RH, and 12/12 (L/D) light regime illuminated by fluorescent lights). Two sets of tests were carried out using Trécé Pherocon® VI traps with sticky inserts, which were set up on poles evenly spaced on a rotating table. The traps were ca. 1 m above a table surface, and ca. 1 m apart from each other. Two grams of egg powder in a white cap (4 cm in diameter, 0.5 cm in height) used as an attractant was put on the center of the sticky insert in the sticky trap. The potential repellent candidate chemicals were loaded into polyethylene bags, and were hung under the inner roof of the traps, 1-1.5 cm above the egg powder attractant. A control had the empty white cap and blank polyethylene bag, while the positive control had only the egg powder and an empty polyethylene bag. The test table was rotated 1.5 r.p.h. […] About 200-300 houseflies (2-3 days old) were released into the testing room for each test. Tests were normally run from 8:00 am to 5:00 pm, and the numbers of houseflies caught in each trap were counted after each test. The results of these tests are shown in FIGS. 11-13 and described above.
# [3] = tested on: male false stable fly Muscina stabulans antenna and female mosquito Aedes (Ochlerotatus) increpitus Dyar antenna; assay: GC-EAD responses of false stable fly and Aedes increpitus to a synthetic mixture; details: about 100 ng of each compound, FIG. 5
# Experimental: The GC-EAD responses of the male false stable fly Muscina stabulans antenna and the female mosquito Aedes (Ochlerotatus) increpitus Dyar antenna were tested on a synthetic mixture of linalool and two representative sesquiterpene hydrocarbons, β-caryophyllene and α-humulene, and one sesquiterpene oxide, β-caryophyllene oxide, with about 100 ng of each compound in the mixture.
# (§1) The following procedures were employed to test the EAD response of an insect antenna to a repellent compound. The GC-EAD technique provides an efficient tool for screening behaviorally active repellents. Several synthetic mixtures of potential insect repellent candidates, mostly sesquiterpene hydrocarbons and derivatives, were analyzed in splitless mode using a Varian CP-3800 GC equipped with a polar column (Innowax; 1.0 μm film thickness, 30 m×0.53 mm ID; J & W Scientific), and a 1:1 effluent splitter that allowed simultaneous flame ionization detection (FID) and EAD of the separated volatile compounds. Helium was used as the carrier gas, and the injector temperature was 220° C. The column temperature was 50° C. for 2 min, rising to 240° C. at 10° C./min, then held for 10 min. The outlet for the EAD was held in a humidified air stream flowing at 0.5 liter/min. over an antennal preparation. A glass capillary indifferent electrode filled with Beadle-Ephrussi Ringer, and grounded via a silver wire, was inserted into the severed insect's head with the antennae. A similar recording electrode connected to a high-impedance DC amplifier with automatic baseline drift compensation was placed in contact with the distal end of one antenna (Zhang et al., Chemoecology, 10:69-80 (2000)). The antennal signals were stored and analyzed on a PC equipped with a serial IDAC interface box and the program EAD ver. 2.5 (Syntech, Hilversum, The Netherlands). The compound 1-octen-3-ol (known attractant for many flies and mosquitoes) was included in most of the synthetic mixtures, as a positive control. The results of the experiments are shown in FIGS. 1-10 and described above.
# [4] = tested on: female antennae of sand fly Phlebotomus papatasi and mosquitoes Aedes aegypti, Anopheles gambiae, Anopheles stephensi; assay: GC-EAD responses of sand fly and three mosquitoes to synthetic mixtures; details: about 100 ng of each compound, on one or more of the sand fly or the mosquitoes, FIGS. 9 and 10
# Experimental: The GC-EAD responses of female antennae of the sand fly, Phlebotomus papatasi, and three species of mosquitoes, Aedes aegypti, Anopheles gambiae, and anopheles stephensi were tested on a synthetic mixture of 1-octen-3-ol, six sesquiterpene hydrocarbons including (+)-longipinene, (−)-isolongifolene, (+)-longifolene, β-caryophyllene, isolongifolenone, and α-humulene, and several known insect repellents including ZE-nepetalactone, EZ-nepetalactone, with about 100 ng of each compound in the mixture.
# The GC-EAD responses of female antennae of the sand fly, Phlebotomus papatasi, and three species mosquitoes, Aedes aegypti, Anopheles gambiae, and anopheles stephensi were tested on a synthetic mixture of 1-octen-3-ol, linalool, β-caryophyllene oxide, isocaryophyllene, β-caryophyllene, and α-humulene, and DEET, with about 100 ng of each compound in the mixture.
# as §1
# [5] = tested on: housefly (Musca domestica) antenna; assay: GC-EAD antennal response, housefly; details: female housefly antenna; synthetic mixture, about 100 ng of each compound; FIG. 3
# Source text: The sesquiterpene hydrocarbons and their derivatives disclosed herein have been identified as suitable insect repellents by testing via a gas chromatographic-electroantennographic detection (GC-EAD) method as described in Example 1 below. This method can be used to efficiently screen for potentially behaviorally active compounds, including insect repellents, attractants, deterrents, or attraction-inhibitors from complex natural sources or synthetic mixtures.
# The GC-EAD responses of the female housefly antenna were tested on a synthetic mixture of 1-octen-3-ol, a known attractant used as a positive control, and representative sesquiterpene hydrocarbons and derivatives, (+)-longipinene, (−)-isolongifolene, (+)-longifolene, β-caryophyllene, α-humulene, and isolongifolenone, with about 100 ng of each compound in the mixture.
# The GC-EAD responses of the male housefly antenna were tested on a synthetic mixture of 1-octen-3-ol, and two representative sesquiterpenes, β-caryophyllene and isocaryophyllene, with about 100 ng of each compound in the mixture.
# as §1
# [6] = tested on: antennae of housefly, sand fly, and mosquitoes Aedes aegypti, Anopheles gambiae, Anopheles stephensi; assay: GC-EAD antennal responses to SPME samples of clove essential oil; details: component of clove essential oil SPME sample; response by one or more of the insects; FIG. 1
# Experimental: The GC-EAD antennal response of a female housefly (Musca domestica), sand fly (Phlebotomus papatasi), and mosquitoes including the species Aedes aegypti, Anopheles gambiae, and Anopheles stephensi were tested with clove essential oil. FIG. 1 is a simultaneous recording of GC flame ionization detection (FID) and electroantennographic detection (EAD) of the insect antennae to solid phase microextraction (SPME: CAR/PDMS) samples of clove essential oil in a 20 ml glass vial for 20 sec.
# as §1, with “The results of the experiments are shown in FIGS. 1-10 and described above.” left out
SMILES,GC-EAD antennal activity [1],"number of house flies per trap ([2]; egg powder attractant plus repellent, FIG. 11, egg powder alone 44) [house flies per trap]","repellency against houseflies, in words ([2]; laboratory trap bioassay with egg powder attractant)",GC-EAD antennal activity [3],GC-EAD antennal activity [4],GC-EAD antennal activity [5],GC-EAD antennal activity [6]
"C=CC(C)(O)CCC=C(C)C (stereo not shown) [linalool, 3,7-dimethyl-3-hydroxy-1,6-octadiene]",active on at least one of the insects tested,5.5,effective housefly repellents,active on at least one of the insects tested,antennally active,–,–
C/C1=C\CC/C(C)=C/CC(C)(C)/C=C/C1 [α-humulene],active on at least one of the insects tested,–,–,active on at least one of the insects tested,antennally active,active,EAD-active
